Data: ChEMBL document CHEMBL1926622, “Novel cyclohexyl-amides as potent antibacterials targeting bacterial type IIA topoisomerases” (Bioorg Med Chem Lett, 2011)
Converted amounts (≈) assume the structure as drawn. Values belong to the compound of their own block, whether it stands above or below them. The source made the active and inactive calls. No cut-off for these calls is given here.

Key:
[1] = Inhibition of Escherichia coli DNA gyrase-mediated DNA replication using [3H]dATP by scintillation proximity assay
[2] = target: Voltage-gated inwardly rectifying potassium channel KCNH2 (Homo sapiens, UniProt Q12809); assay: Inhibition of human ERG by whole cell patch clamp assay
Sequence of Voltage-gated inwardly rectifying potassium channel KCNH2 (Q12809 whole entry): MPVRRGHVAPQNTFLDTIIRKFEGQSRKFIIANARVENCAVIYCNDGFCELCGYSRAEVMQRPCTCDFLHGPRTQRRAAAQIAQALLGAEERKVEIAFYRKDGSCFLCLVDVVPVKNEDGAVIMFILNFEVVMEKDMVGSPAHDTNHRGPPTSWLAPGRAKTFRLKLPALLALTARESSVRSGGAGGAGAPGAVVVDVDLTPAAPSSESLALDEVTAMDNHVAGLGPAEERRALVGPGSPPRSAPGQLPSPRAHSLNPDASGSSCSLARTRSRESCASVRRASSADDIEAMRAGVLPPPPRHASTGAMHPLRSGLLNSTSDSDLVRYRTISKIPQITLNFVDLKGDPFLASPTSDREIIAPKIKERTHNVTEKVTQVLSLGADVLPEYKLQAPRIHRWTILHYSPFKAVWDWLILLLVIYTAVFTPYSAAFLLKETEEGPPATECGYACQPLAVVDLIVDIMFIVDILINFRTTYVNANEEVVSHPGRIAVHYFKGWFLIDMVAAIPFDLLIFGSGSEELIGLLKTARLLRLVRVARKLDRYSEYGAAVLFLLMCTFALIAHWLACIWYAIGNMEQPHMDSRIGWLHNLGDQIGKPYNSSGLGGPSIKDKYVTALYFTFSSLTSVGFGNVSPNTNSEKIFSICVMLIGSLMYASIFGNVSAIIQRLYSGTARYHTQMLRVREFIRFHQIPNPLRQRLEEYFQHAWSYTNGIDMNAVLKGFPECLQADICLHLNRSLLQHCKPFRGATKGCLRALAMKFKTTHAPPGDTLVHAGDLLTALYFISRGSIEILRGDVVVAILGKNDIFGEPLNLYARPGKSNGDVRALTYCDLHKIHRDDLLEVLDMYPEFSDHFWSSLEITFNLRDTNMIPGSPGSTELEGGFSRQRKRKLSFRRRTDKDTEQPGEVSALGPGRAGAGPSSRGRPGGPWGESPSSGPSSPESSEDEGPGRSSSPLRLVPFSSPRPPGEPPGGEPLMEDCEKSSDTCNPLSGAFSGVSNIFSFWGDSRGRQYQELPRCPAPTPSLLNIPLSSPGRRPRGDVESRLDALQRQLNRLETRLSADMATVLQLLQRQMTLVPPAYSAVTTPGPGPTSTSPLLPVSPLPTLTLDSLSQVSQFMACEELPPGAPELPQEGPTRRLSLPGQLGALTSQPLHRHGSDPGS

Streptococcus pneumoniae [3] = assay: Antibacterial activity against Streptococcus pneumoniae 1629 after 18 to 24 hrs by broth microdilution technique; assay type: functional
Haemophilus influenzae [4] = assay: Antibacterial activity against Haemophilus influenzae H128 after 18 to 24 hrs by broth microdilution technique; assay type: functional
Staphylococcus aureus = assay: Antibacterial activity against Staphylococcus aureus WCUH 29 after 18 to 24 hrs by broth microdilution technique; assay type: functional
Haemophilus influenzae [5] = assay: Antibacterial activity against Haemophilus influenzae Q1 after 18 to 24 hrs by broth microdilution technique; assay type: functional
Liver microsomes [6] = assay: Drug metabolism in rat liver microsomes assessed as mono-oxidation metabolite formation; assay type: ADME, Microsome
[7] = Volume of distribution at steady state in Beagle dog at 2.6 mg/kg, iv; assay type: ADME, organism-based, Canis lupus familiaris; set-up: dose 2.6 mg/kg, route intravenous; details: in vivo, read-out: Vdss
[8] = Half life in cynomolgus monkey at 2.7 mg/kg, iv; assay type: ADME, organism-based, Macaca fascicularis; set-up: dose 2.7 mg/kg, route intravenous; details: in vivo
Cynomolgus monkey [9] = assay: Renal clearance in cynomolgus monkey at 2.7 mg/kg, iv; assay type: ADME, organism-based, Macaca fascicularis, Kidney; set-up: dose 2.7 mg/kg, route intravenous; details: in vivo
Streptococcus pneumoniae [10] = assay: Antibacterial activity against Streptococcus pneumoniae 1629 infected in rat assessed as log decrease in colony forming units per lung at 25 mg/kg, po after 48 hrs relative to untreated control; assay type: functional
[11] = Intrinsic clearance in monkey liver microsomes; assay type: ADME, Macaca mulatta, Microsome; details: rhesus monkey
[12] = AUC in Sprague-Dawley rat at 4.6 mg/kg, po; assay type: ADME, organism-based; set-up: dose 4.6 mg/kg, route oral; details: plasma
[13] = Half life in Beagle dog at 2.6 mg/kg, iv; assay type: ADME, organism-based, Canis lupus familiaris; set-up: dose 2.6 mg/kg, route intravenous; details: in vivo
[14] = Plasma protein binding in dog; assay type: ADME, cell-free, Canis lupus familiaris; details: read-out: PPB (converted)
[15] = Plasma protein binding in rat; assay type: ADME, cell-free; details: read-out: PPB (converted)
[16] = Plasma protein binding in human; assay type: ADME, cell-free; details: read-out: PPB (converted)
[17] = Blood clearance in cynomolgus monkey at 2.7 mg/kg, iv; assay type: ADME, organism-based, Macaca fascicularis; set-up: dose 2.7 mg/kg, route intravenous
[18] = Plasma protein binding in monkey; assay type: ADME, cell-free, Macaca mulatta; details: rhesus monkey, read-out: PPB (converted)
[19] = Blood clearance in Sprague-Dawley rat at 2.9 mg/kg, iv; assay type: ADME, organism-based; set-up: dose 2.9 mg/kg, route intravenous
Liver = assay: Intrinsic clearance in dog liver microsomes; assay type: ADME, Canis lupus familiaris, Microsome
[20] = Drug metabolism in monkey liver microsomes assessed as mono-oxidation metabolite formation; assay type: ADME, Macaca mulatta, Microsome; details: rhesus monkey
[21] = Oral bioavailability in Beagle dog at 4.5 mg/kg; assay type: ADME, organism-based, Canis lupus familiaris; details: in vivo
[22] = Oral bioavailability in cynomolgus monkey at 4.4 mg/kg; assay type: ADME, organism-based, Macaca fascicularis; details: in vivo
[23] = Oral bioavailability in Sprague-Dawley rat at 4.6 mg/kg; assay type: ADME, organism-based; details: in vivo
[24] = Mean residence time in Beagle dog at 4.5 mg/kg, po; assay type: ADME, organism-based, Canis lupus familiaris; set-up: dose 4.5 mg/kg, route oral; details: in vivo
[25] = Half life in Sprague-Dawley rat at 2.9 mg/kg, iv; assay type: ADME, organism-based; set-up: dose 2.9 mg/kg, route intravenous; details: in vivo
[26] = Drug metabolism in dog liver microsomes assessed as mono-oxidation metabolite formation; assay type: ADME, Canis lupus familiaris, Microsome
[27] = Volume of distribution at steady state in Sprague-Dawley rat at 2.9 mg/kg, iv; assay type: ADME, organism-based; set-up: dose 2.9 mg/kg, route intravenous; details: in vivo, read-out: Vdss
[28] = AUC in cynomolgus monkey at 4.4 mg/kg, po; assay type: ADME, organism-based, Macaca fascicularis; set-up: dose 4.4 mg/kg, route oral; details: plasma
[29] = Mean residence time in Sprague-Dawley rat at 4.6 mg/kg, po; assay type: ADME, organism-based; set-up: dose 4.6 mg/kg, route oral; details: in vivo
[30] = AUC in Beagle dog at 4.5 mg/kg, po; assay type: ADME, organism-based, Canis lupus familiaris; set-up: dose 4.5 mg/kg, route oral; details: plasma
Rattus norvegicus [31] = assay: Renal clearance in Sprague-Dawley rat at 2.9 mg/kg, iv; assay type: ADME, organism-based, Kidney; set-up: dose 2.9 mg/kg, route intravenous; details: in vivo
[32] = Mean residence time in cynomolgus monkey at 4.4 mg/kg, po; assay type: ADME, organism-based, Macaca fascicularis; set-up: dose 4.4 mg/kg, route oral; details: in vivo
[33] = Volume of distribution at steady state in cynomolgus monkey at 2.7 mg/kg, iv; assay type: ADME, organism-based, Macaca fascicularis; set-up: dose 2.7 mg/kg, route intravenous; details: in vivo, read-out: Vdss
Canis familiaris [34] = assay: Renal clearance in Beagle dog at 2.6 mg/kg, iv; assay type: ADME, organism-based, Canis lupus familiaris, Kidney; set-up: dose 2.6 mg/kg, route intravenous; details: in vivo
Streptococcus pneumoniae [35] = assay: Antibacterial activity against Streptococcus pneumoniae 1629 infected in rat assessed as complete eradication of infection at 50 mg/kg, po after 48 hrs; assay type: functional, organism-based; set-up: dose 50 mg/kg
Cynomolgus monkey [36] = assay: Hepatic blood flow in cynomolgus monkey at 2.7 mg/kg, iv; assay type: ADME, organism-based, Macaca fascicularis, Liver; set-up: dose 2.7 mg/kg, route intravenous; details: in vivo
[37] = Blood clearance in Beagle dog at 2.6 mg/kg, iv; assay type: ADME, organism-based, Canis lupus familiaris; set-up: dose 2.6 mg/kg, route intravenous
Rattus norvegicus [38] = assay: Hepatic blood flow in Sprague-Dawley rat at 2.9 mg/kg, iv; assay type: ADME, organism-based, Liver; set-up: dose 2.9 mg/kg, route intravenous; details: in vivo
Canis familiaris [39] = assay: Hepatic blood flow in Beagle dog at 2.6 mg/kg, iv; assay type: ADME, organism-based, Canis lupus familiaris, Liver; set-up: dose 2.6 mg/kg, route intravenous; details: in vivo
Liver microsomes [40] = assay: Intrinsic clearance in human liver microsomes; assay type: ADME, Microsome

SMILES: Cc1ccc2cccc(NC(=O)[C@H]3CC[C@H](NCc4cc5c(cn4)OCCO5)CC3)c2n1
- IC50 [1]: 0.069 µg/mL (≈ 0.16 µM)
- MIC (Streptococcus pneumoniae [3]): 0.25 µg/mL (≈ 0.578 µM)
- MIC (Haemophilus influenzae [4]): 2 µg/mL (≈ 4.62 µM)
- MIC (Staphylococcus aureus): 0.125 µg/mL (≈ 0.289 µM)

SMILES: CO[C@@H]1C[C@H](C(=O)Nc2cccc3ccc(C)nc23)CC[C@H]1NCc1cc2c(cn1)OCCO2
- IC50 [1]: 0.102 µg/mL (≈ 0.221 µM)
- MIC (Streptococcus pneumoniae [3]): 0.5 µg/mL (≈ 1.08 µM)
- MIC (Haemophilus influenzae [4]): 16 µg/mL (≈ 34.6 µM)
- MIC (Staphylococcus aureus): 0.5 µg/mL (≈ 1.08 µM)

SMILES: COc1ccc2nccc(NC(=O)[C@]3(O)CC[C@@H](NCc4cc5c(cn4)OCCO5)CC3)c2c1
- IC50 [1]: 0.01 µg/mL (≈ 0.0215 µM)
- IC50 [2]: 200 µM
- MIC (Streptococcus pneumoniae [3]): 0.125 µg/mL (≈ 0.269 µM)
- MIC (Haemophilus influenzae [4]): 1 µg/mL (≈ 2.15 µM)
- MIC (Staphylococcus aureus): 0.125 µg/mL (≈ 0.269 µM)

SMILES: COc1ccc2nccc(NC(=O)[C@H]3CC[C@H](NCc4ccc5c(c4)OCCO5)CC3)c2n1
- IC50 [1]: 0.003 µg/mL (≈ 0.00669 µM)
- MIC (Streptococcus pneumoniae [3]): 0.125 µg/mL (≈ 0.279 µM)
- MIC (Haemophilus influenzae [4]): 1 µg/mL (≈ 2.23 µM)
- MIC (Staphylococcus aureus): 0.03 µg/mL (≈ 0.0669 µM)

SMILES: COc1ccc2nccc(NC(=O)[C@H]3CC[C@H](NCc4ccc5c(c4)OCCO5)CC3)c2c1
- IC50 [1]: 0.017 µg/mL (≈ 0.038 µM)
- IC50 [2]: 25 µM
- MIC (Streptococcus pneumoniae [3]): 0.25 µg/mL (≈ 0.559 µM)
- MIC (Haemophilus influenzae [5]): 2 µg/mL (≈ 4.47 µM)
- MIC (Staphylococcus aureus): 0.03 µg/mL (≈ 0.067 µM)

SMILES: COc1ccc2nccc(NC(=O)[C@]3(O)CC[C@@H](NCc4cc5c(cn4)OCCO5)CC3)c2n1
- Drug metabolism (Liver microsomes [6]): Active
- Vd [7]: 3.7 L/kg
- half-life [8]: 1.8 h
- IC50 [1]: 0.013 µg/mL (≈ 0.0279 µM)
- CL (Cynomolgus monkey [9]): 3%
- log10cfu (Streptococcus pneumoniae [10]): 2
- CL [11]: 2.6 mL/min/g
- AUC [12]: 340 ng·h/mL
- half-life [13]: 6.3 h
- fraction unbound [14]: 0.263
- fraction unbound [15]: 0.268
- fraction unbound [16]: 0.274
- clearance [17]: 34.2 mL/min/kg
- fraction unbound [18]: 0.165
- clearance [19]: 41.1 mL/min/kg
- CL (Liver): 2.2 mL/min/g
- Drug metabolism [20]: Active
- bioavailability [21]: 63%
- bioavailability [22]: 9%
- bioavailability [23]: 18%
- MRT [24]: 9.8 h
- half-life [25]: 1 h
- Drug metabolism [26]: Active
- MIC (Streptococcus pneumoniae [3]): 0.125 µg/mL (≈ 0.269 µM)
- MIC (Haemophilus influenzae [4]): 0.5 µg/mL (≈ 1.07 µM)
- Vd [27]: 2.41 L/kg
- AUC [28]: 190 ng·h/mL
- MRT [29]: 2.9 h
- AUC [30]: 5700 ng·h/mL
- CL (Rattus norvegicus [31]): 3%
- MRT [32]: 6.4 h
- Vd [33]: 4.1 L/kg
- CL (Canis familiaris [34]): 3%
- Activity (Streptococcus pneumoniae [35]): Active
- QH (Cynomolgus monkey [36]): 73%
- clearance [37]: 8.4 mL/min/kg
- QH (Rattus norvegicus [38]): 73%
- QH (Canis familiaris [39]): 73%
- MIC (Staphylococcus aureus): 0.01 µg/mL (≈ 0.0215 µM)
- CL (Liver microsomes [40]): 0.8 mL/min/g

Further lines, with some results ahead:

- IC50 [1]: 0.009 µg/mL (≈ 0.0187 µM)
- MIC (Streptococcus pneumoniae [3]): 0.125 µg/mL (≈ 0.259 µM)
- MIC (Haemophilus influenzae [4]): 1 µg/mL (≈ 2.07 µM)
- MIC (Staphylococcus aureus): 0.06 µg/mL (≈ 0.124 µM)
SMILES: COc1cc(F)c2nccc(NC(=O)[C@]3(O)CC[C@@H](NCc4cc5c(cn4)OCCO5)CC3)c2c1
- IC50 [2]: 113 µM

- IC50 [1]: 0.05 µg/mL (≈ 0.111 µM)
- MIC (Streptococcus pneumoniae [3]): 0.125 µg/mL (≈ 0.279 µM)
- MIC (Haemophilus influenzae [4]): 2 µg/mL (≈ 4.46 µM)
- MIC (Staphylococcus aureus): 0.125 µg/mL (≈ 0.279 µM)
SMILES: Cc1ccc2cccc(NC(=O)[C@]3(O)CC[C@@H](NCc4cc5c(cn4)OCCO5)CC3)c2n1
- IC50 [2]: 2 µM

- IC50 [1]: 0.002 µg/mL (≈ 0.00435 µM)
- MIC (Streptococcus pneumoniae [3]): 0.06 µg/mL (≈ 0.131 µM)
- MIC (Haemophilus influenzae [4]): 0.5 µg/mL (≈ 1.09 µM)
- MIC (Staphylococcus aureus): 0.03 µg/mL (≈ 0.0653 µM)
SMILES: N#Cc1ccc2cccc(NC(=O)[C@]3(O)CC[C@@H](NCc4cc5c(cn4)OCCO5)CC3)c2n1

- IC50 [1]: 0.004 µg/mL (≈ 0.00861 µM)
- MIC (Streptococcus pneumoniae [3]): 0.03 µg/mL (≈ 0.0646 µM)
- MIC (Haemophilus influenzae [4]): 0.5 µg/mL (≈ 1.08 µM)
- MIC (Staphylococcus aureus): 0.03 µg/mL (≈ 0.0646 µM)
SMILES: COc1ccc2nccc(NC(=O)[C@]3(O)CC[C@@H](NCc4ccc5c(c4)OCCO5)CC3)c2n1
- IC50 [2]: 25 µM

- IC50 [1]: 0.008 µg/mL (≈ 0.0178 µM)
- MIC (Streptococcus pneumoniae [3]): 0.03 µg/mL (≈ 0.0667 µM)
- MIC (Haemophilus influenzae [4]): 0.25 µg/mL (≈ 0.556 µM)
- MIC (Staphylococcus aureus): 0.01 µg/mL (≈ 0.0222 µM)
SMILES: COc1ccc2nccc(NC(=O)[C@H]3CC[C@H](NCc4cc5c(cn4)OCCO5)CC3)c2n1
- IC50 [2]: 29 µM

- IC50 [1]: 0.001 µg/mL (≈ 0.00218 µM)
- MIC (Streptococcus pneumoniae [3]): 0.03 µg/mL (≈ 0.0653 µM)
- MIC (Haemophilus influenzae [4]): 0.5 µg/mL (≈ 1.09 µM)
- MIC (Staphylococcus aureus): 0.01 µg/mL (≈ 0.0218 µM)
SMILES: N#Cc1ccc2cccc(NC(=O)[C@@H]3CC[C@@H](NCc4cc5c(cn4)OCCO5)[C@@H](O)C3)c2n1

- IC50 [1]: 0.01 µg/mL (≈ 0.0215 µM)
- MIC (Streptococcus pneumoniae [3]): 0.06 µg/mL (≈ 0.129 µM)
- MIC (Haemophilus influenzae [4]): 2 µg/mL (≈ 4.3 µM)
- MIC (Staphylococcus aureus): 0.03 µg/mL (≈ 0.0644 µM)
SMILES: COc1ccc2nccc(NC(=O)[C@]3(O)CC[C@@H](NCc4cnc5c(c4)OCCO5)CC3)c2n1
